# From patent publication US8440707B2, “Antagonists of lysophosphatidic acid receptors” (Amira Pharmaceuticals, Inc., priority 2008, dated 2013)
# Columns and labels:
# [1] = system: CCl4-induced liver fibrosis; experiment: Mouse carbon tetrachloride (CCl4)-induced liver fibrosis model; type: in vivo; conditions: for collagen deposition in the liver: as compared to the untreated group
# Procedure: Female C57BL/6 mice (Harlan, 20-25 g) housed 4/cage are given free access to food and water and allowed to acclimate for at least 7 days prior to test initiation. After the habituation phase, mice receive CCl4 (0.5-1.0 ml/kg body weight) diluted in corn oil vehicle (100 μL volume) via i.p. injection twice a week for 4-6 weeks. (Higazi, A. A. et al., Clin Exp Immunol. 2008 April; 152(1):163-73. Epub 2008 Feb. 14). Control mice receive an equivalent volume of corn oil vehicle only. Test compound or vehicle is delivered po, ip or sc daily. At the end of the study (4-6 weeks after first i.p. injection of CCl4), mice are sacrificed using inhaled isoflurane and blood is drawn via cardiac puncture for subsequent analysis of ALT/AST levels. The liver is harvested, and one half of the liver is frozen at −80° C. and the other half is fixed in 10% neutral buffered formalin for histological assessment of liver fibrosis using light microscopy (10× magnification). Liver tissue homogenates are analyzed for collagen levels using Sircol (Biocolor Ltd, UK). Fixed Liver tissue is stained using hematoxylin and eosin (H&E) and trichrome and liver fibrosis is determined by quantitative, computer-assisted densitometry of collagen in liver tissue sections using light microscopy. Plasma and liver tissue lysates are also analyzed for concentrations of inflammatory, pro-fibrotic and tissue injury biomarkers including transforming growth factor β1, hyaluronic acid, tissue inhibitor of metalloproteinase-1, matrix matelloproteinase-7, connective tissue growth factor and lactate dehydrogenase activity, using commercially available ELISA. The resulting data are plotted using Graphpad prism and statistical differences between groups determined.
# [2] = system: bleomycin-induced lung fibrosis; experiment: Bleomycin-induced lung fibrosis model in mice; type: in vivo
# Excerpt: Female CD-1 mice (Harlan, 25-30 g) are housed 4 per cage, given free access to food and water and allowed to acclimate for at least 7 days prior to test initiation. After the habituation phase, mice are lightly anesthetized with isoflurane (5% in 100% O2) and administered with bleomycin sulfate (0.01-5 U/kg, Henry Schein) via intratracheal instillation (Cuzzocrea S et al. Am J Physiol Lung Cell Mol. Physiol. 2007 May; 292(5):[…]-104. Epub 2007 Jan. 12). Mice are returned to their cages and monitored daily for the duration of the experiment. Test compound or vehicle is delivered po, ip or sc daily. The route and frequency of dosing is based on previously determined pharmacokinetic properties. All animals are sacrificed using inhaled isoflurane 3, 7, 14, 21 or 28 days after bleomycin instillation. Following sacrifice, mice are intubated with a 20 gauge angiocatheter attached to a 1 ml syringe. Lungs are lavaged with saline to obtain bronchoalveolar lavage fluid (BALF) and then removed and fixed in 10% neutral buffered formalin for subsequent histopathological analysis. BALF is centrifuged for 10 min at 800×g to pellet the cells and the cell supernatant removed and frozen at -80° C. for subsequent protein analysis using the DC protein assay kit (Biorad, Hercules, Calif.) and soluble collagen analysis using Sircol (Biocolor Ltd, UK). BALF is analyzed for concentrations of inflammatory, pro-fibrotic and tissue injury biomarkers including transforming growth factor β1, hyaluronic acid, tissue inhibitor of metalloproteinase-1, matrix matelloproteinase-7, connective tissue growth factor and lactate dehydrogenase activity, using commercially available ELISA. The cell pellet is re-suspended in PBS. Total cell counts are then obtained using a Hemavet hematology system (Drew Scientific, Wayne, Pa.) and differential cells counts are determined using Shandon cytospin (Thermo Scientific, Waltham, Mass.). Lung tissue is stained using hematoxylin and eosin (H&E) and trichrome and lung fibrosis is determined by semiquantitative histopathological scoring (Ashcroft T. et al. J. Clin. Path. 1988; 41; 4, 467-470) using light microscopy (10× magnification) and quantitative, computer-assisted densitometry of collagen in lung tissue sections using light microscopy. The data are plotted using Graphpad prism and statistical differences between groups determined.
# renal fibrosis = conditions: compared with LPA1 (−/−) mice, in which renal fibrosis was significantly attenuated; cited from earlier work
# bone metastasis = conditions: cited from earlier work
# [3] = system: highly peritoneal metastatic pancreatic cancer cell line; conditions: cited from earlier work
# [4] = system: pancreatic cancer cell lines; conditions: cited from earlier work
# [5] = chronic setting (14-days only), single bleomycin instillation (3.0 units)
# [6] = chronic setting (14 and 28 day), single bleomycin (1.5 units/kg) instillation
# [7] = chronic setting, repeated bleomycin (3.0-5.0 units/kg/week) instillations
Structure (SMILES),collagen deposition in the liver [1],lactate in the BALF ([2]; acute setting (3-day)),tissue inhibitor of metalloproteinase-1 (TIMP-1; pro-fibrotic marker) concentrations in BALF ([2]; acute setting (3 day)),total protein in broncheoalveolar lavage fluid (BALF) ([2]; acute setting (3 day)),"fibrosis [2, 5]","inflammatory cell influx [2, 5]","effect on collagen deposition compared with pirfenidone ([1]; 30 mg/kg, po, qd)",lactate dehydrogenase activity (LDH; tissue injury marker) in BALF ([2]; acute setting (3 day)),"fibrosis [2, 6]","inflammatory cell influx [2, 6]","mouse body weight [2, 6]","lung fibrosis [2, 7]","pulmonary resistance [2, 7]",development of renal fibrosis in UUO mice (renal fibrosis),metastasis to bone in vivo (bone metastasis),LPA-induced and ascites-induced invasion activity [3],in vitro migration in response to LPA and peritoneal fluid (ascites) from pancreatic cancer patients [4]
"Cc1noc(-c2ccc(-c3ccc(CC(=O)O)cc3)cc2)c1NC(=O)O[C@H](C)c1ccccc1 [Compound 37, {4′-[3-Methyl-4-((R)-1-phenyl-ethoxycarbonylamino)-isoxazol-5-yl]-biphenyl-4-yl}-acetic acid]",significantly reduced,reduced,reduced,reduced,decreased,decreased,–,–,–,–,–,–,–,–,–,–,–
"Cc1noc(-c2ccc(-c3ccc(CC(=O)O)cc3)cc2)c1NC(=O)O[C@H](C)c1ccccc1Cl [Compound 27, (4′-{4-[(R)-1-(2-Chloro-phenyl)-ethoxycarbonylamino]-3-methyl-isoxazol-5-yl}-biphenyl-4-yl)-acetic acid]",significantly reduced,–,significantly reduced,significantly reduced,–,–,same effect,significantly reduced,decreased,decreased,maintained,decreased,decreased,–,–,–,–
Cc1noc(-c2ccc(CSCCC(=O)O)cc2)c1NC(=O)OC(C)c1ccccc1Cl (centres unmarked) [Ki16425],–,–,–,–,–,–,–,–,–,–,–,–,–,closely resembled the LPA1 (−/−) mice,inhibit,blocked,effectively blocked
